Source: patent US11911374B2, “Methods and uses for treating cancer” (NELUM CORPORATION, priority 2019, dated 2024)
pIC50: −log10 of the molar value. Where two headings read alike, the source gives them in different places.

What was measured:
Panc025 = Panc025 PDAC subcutaneous xenograft model; type: in vivo, mice; settings: Panc 025, nab-paclitaxel 50 mg/kg 1dq4×3, TAK-441 25 mg/kg daily p.o.
Description: (§1) After several dose-finding studies to define the most feasible dose of nab-paclitaxel, a dose of 50 mg/kg 1dq4×3 was used. TAK-441 was selected and administered daily at the recommended dose (25 mg/kg daily p.o.). The study was conducted for 21 days. Based on the tumor volume values on experimental day 21, it was estimated the Tumor Growth Inhibition (TGI) factor as indicated in the Table 1. […] In order to evaluate the histological status of the stroma after treatment, Masson's Trichrome stained slides from Panc 163 and Panc 025 models were analyzed.

[1] = test system: PAN-04 primary human pancreas xenograft; settings: PAN-04 xenograft, cited from earlier work
[2] = set-up: dose or concentration left out as unconfirmed; settings: dogs; cited from earlier work
[3] = rats, cited from earlier work
[4] = set-up: dose or concentration left out as unconfirmed; settings: mice; cited from earlier work
[5] = cited from earlier work
human Smo (hSmo) = target: T1, human Smo (hSmo) (Homo sapiens, UniProt Q99835); settings: 293T cells overexpressing hSmo; read-out: IC50, inhibition of cyclopamine binding to human Smo; cited from earlier work
T1 construct: expressed in transfected cells; host or cells: 293T cells
T1 sequence (Q99835 28-787): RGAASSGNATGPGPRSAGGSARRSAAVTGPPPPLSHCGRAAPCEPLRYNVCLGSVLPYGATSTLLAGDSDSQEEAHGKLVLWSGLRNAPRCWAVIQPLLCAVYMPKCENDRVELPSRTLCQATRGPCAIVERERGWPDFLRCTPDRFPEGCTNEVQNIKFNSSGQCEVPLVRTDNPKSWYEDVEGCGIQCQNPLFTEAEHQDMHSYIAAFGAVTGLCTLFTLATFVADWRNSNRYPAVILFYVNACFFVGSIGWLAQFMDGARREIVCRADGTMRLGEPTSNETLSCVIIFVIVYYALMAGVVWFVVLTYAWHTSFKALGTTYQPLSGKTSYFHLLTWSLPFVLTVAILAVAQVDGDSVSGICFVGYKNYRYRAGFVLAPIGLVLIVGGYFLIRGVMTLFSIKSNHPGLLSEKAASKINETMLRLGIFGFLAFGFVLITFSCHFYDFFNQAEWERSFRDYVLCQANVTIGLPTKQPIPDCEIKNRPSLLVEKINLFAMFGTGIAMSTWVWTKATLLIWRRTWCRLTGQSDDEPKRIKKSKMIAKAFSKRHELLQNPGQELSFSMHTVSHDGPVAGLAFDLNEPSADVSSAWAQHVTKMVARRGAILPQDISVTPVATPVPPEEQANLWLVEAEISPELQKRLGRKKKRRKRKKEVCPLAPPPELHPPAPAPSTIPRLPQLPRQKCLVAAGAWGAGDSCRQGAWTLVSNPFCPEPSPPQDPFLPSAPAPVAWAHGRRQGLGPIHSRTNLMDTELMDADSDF

CYP isozymes = settings: cited from earlier work
Gli1 mRNA = settings: MRC5 human embryonic fibroblasts; read-out: IC50, expression of Gli1 mRNA; cited from earlier work
[6] = set-up: dose or concentration left out as unconfirmed; settings: human beings; cited from earlier work
CYP2C8 = target: T2, CYP2C8 (Homo sapiens, UniProt P10632); settings: cited from earlier work
T2 sequence (P10632 1-490): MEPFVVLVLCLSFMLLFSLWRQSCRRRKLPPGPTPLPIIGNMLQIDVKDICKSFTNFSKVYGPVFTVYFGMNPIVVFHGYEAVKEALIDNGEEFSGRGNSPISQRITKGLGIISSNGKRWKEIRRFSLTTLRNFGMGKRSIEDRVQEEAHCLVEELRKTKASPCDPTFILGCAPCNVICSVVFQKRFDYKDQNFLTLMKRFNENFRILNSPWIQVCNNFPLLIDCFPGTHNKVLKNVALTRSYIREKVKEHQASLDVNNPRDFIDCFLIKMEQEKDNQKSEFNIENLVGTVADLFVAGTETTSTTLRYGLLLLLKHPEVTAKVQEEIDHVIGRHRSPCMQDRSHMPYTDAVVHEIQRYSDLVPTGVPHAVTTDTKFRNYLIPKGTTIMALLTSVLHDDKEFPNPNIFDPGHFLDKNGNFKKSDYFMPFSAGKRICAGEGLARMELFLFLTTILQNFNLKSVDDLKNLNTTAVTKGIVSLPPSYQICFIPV

[7] = rats; cited from earlier work
[8] = cited from earlier work; remark: listed apart in the source
JH051 = JH051 PDAC subcutaneous xenograft model; type: in vivo, mice; settings: JH 051, nab-paclitaxel 50 mg/kg 1dq4×3, TAK-441 25 mg/kg daily p.o.
Description: After several dose-finding studies to define the most feasible dose of nab-paclitaxel, a dose of 50 mg/kg 1dq4×3 was used. TAK-441 was selected and administered daily at the recommended dose (25 mg/kg daily p.o.). The study was conducted for 21 days. Based on the tumor volume values on experimental day 21, it was estimated the Tumor Growth Inhibition (TGI) factor as indicated in the Table 1.

[9] = set-up: dose or concentration left out as unconfirmed; settings: rats; cited from earlier work
P-glycoprotein (P-gp) = target: T3, P-glycoprotein (P-gp) (Homo sapiens, UniProt P08183); settings: cited from earlier work
T3 construct: endogenous in cells; host or cells: Caco-2 cells
T3 sequence (P08183 whole entry): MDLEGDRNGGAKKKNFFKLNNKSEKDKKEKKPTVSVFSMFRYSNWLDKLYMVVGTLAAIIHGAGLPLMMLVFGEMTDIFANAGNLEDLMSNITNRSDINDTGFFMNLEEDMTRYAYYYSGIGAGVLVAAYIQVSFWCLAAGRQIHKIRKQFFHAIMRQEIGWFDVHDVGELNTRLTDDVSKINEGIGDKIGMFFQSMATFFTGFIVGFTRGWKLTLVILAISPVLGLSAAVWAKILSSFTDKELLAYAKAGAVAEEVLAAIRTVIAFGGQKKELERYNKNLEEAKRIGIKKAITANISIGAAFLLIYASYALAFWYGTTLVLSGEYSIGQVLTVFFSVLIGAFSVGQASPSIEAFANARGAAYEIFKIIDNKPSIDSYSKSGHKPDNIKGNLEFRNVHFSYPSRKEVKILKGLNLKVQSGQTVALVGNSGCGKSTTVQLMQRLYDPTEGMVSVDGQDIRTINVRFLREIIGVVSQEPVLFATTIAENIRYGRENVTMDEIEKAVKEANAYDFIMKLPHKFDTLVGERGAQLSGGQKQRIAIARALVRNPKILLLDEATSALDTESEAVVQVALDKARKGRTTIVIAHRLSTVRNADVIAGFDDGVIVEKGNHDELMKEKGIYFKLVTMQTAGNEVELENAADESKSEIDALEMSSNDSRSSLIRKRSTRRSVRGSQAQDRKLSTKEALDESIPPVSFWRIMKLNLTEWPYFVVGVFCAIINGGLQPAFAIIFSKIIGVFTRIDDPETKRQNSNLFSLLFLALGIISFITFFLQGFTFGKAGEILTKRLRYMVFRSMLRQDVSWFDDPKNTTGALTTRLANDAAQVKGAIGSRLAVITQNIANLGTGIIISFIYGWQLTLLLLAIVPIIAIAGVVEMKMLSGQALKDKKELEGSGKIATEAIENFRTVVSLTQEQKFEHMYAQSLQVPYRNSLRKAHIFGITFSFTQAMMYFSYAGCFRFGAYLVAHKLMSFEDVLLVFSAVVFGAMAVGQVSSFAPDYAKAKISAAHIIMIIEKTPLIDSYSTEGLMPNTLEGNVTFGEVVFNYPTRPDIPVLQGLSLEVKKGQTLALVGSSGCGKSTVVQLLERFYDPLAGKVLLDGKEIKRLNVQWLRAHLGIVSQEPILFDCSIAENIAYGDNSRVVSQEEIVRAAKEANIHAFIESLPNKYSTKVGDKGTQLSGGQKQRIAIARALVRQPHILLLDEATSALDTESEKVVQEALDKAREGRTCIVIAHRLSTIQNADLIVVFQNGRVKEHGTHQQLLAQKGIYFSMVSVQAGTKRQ

Panc163 = Panc163 PDAC subcutaneous xenograft model; type: in vivo, mice; settings: Panc 163, nab-paclitaxel 50 mg/kg 1dq4×3, TAK-441 25 mg/kg daily p.o.
Description: as §1

[10] = test system: human PDE4 phosphodiesterase; set-up: dose or concentration left out as unconfirmed; settings: cited from earlier work
Caco-2 cells = settings: cited from earlier work
[11] = test system: Gli transcriptional activity; settings: Gli-luc NIH3T3 cells; cited from earlier work
[12] = test system: castration-resistant prostate cancer; settings: murine castration-resistant prostate cancer models; cited from earlier work
[13] = target: human neurotransmitter dopamine transporter (Homo sapiens, UniProt Q01959); set-up: dose or concentration left out as unconfirmed; settings: cited from earlier work
Sequence of human neurotransmitter dopamine transporter (Q01959 whole entry): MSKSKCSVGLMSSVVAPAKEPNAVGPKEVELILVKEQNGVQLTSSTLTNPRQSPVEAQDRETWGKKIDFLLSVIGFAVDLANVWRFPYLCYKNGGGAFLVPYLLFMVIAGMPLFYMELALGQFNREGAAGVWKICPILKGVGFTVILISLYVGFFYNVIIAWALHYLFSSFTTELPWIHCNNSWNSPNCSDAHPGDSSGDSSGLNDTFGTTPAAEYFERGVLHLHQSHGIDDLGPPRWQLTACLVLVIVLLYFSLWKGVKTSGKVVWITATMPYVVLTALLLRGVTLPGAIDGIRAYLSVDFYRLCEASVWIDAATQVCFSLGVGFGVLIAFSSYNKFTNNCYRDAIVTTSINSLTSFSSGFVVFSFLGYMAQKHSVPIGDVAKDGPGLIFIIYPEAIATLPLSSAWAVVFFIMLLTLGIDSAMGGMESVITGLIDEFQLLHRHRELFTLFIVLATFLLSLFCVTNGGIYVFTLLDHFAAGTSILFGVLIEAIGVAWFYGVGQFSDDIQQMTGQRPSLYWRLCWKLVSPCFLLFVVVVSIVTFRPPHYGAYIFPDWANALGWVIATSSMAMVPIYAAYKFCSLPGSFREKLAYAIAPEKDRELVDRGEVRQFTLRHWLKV

[14] = test system: medulloblastoma allograft; settings: cited from earlier work
[15] = dogs, cited from earlier work
Smo = settings: preclinical pancreatic cancer models; cited from earlier work
[16] = exposures exceeding the predicted efficacious concentration

Q: Which results are given for `CCc1cc2c(c(OCC(F)(F)F)c(C(=O)NC3CCN(C(=O)CO)CC3)n2C)c(=O)n1CC(=O)c1ccccc1` [TAK-441, 6-ethyl-N-[1-(hydroxyacetyl)piperidin-4-yl]-1-methyl-4-oxo-5-(2-oxo-2-phenylethyl)-3-(2,2,2-triflurorethoxy)-4,5-dihydro-1H-pyrrolo[3,2-c]pyrdine-2-carboxamide]?
A: TGI (%) day 21 (1 − [Tf − Ti]/[Cf − Ci]) (Panc025): 42%; expression of Gli1 mRNA in vivo ([1]; stromal tumor associated): dose-dependent inhibition; tumor activity ([1]; p<0.025): significant dose-dependent tumor activity; binding to plasma proteins [2]: 79.6%; other findings of unknown relevance to humans [3]: gait alterations and tremors; toxicological changes [3, 16]: decreased body weight; atrophy of the growth plate in the ribs and hair follicles; erosion or ulceration of the gastric mucosa; anemia; necrosis and hypocellularity of the bone marrow as well as inflammation and hemorrhage in the lung; binding to plasma proteins [4]: 99.7%; CL ([5]; dogs): 6.632 mL/min/kg; distribution volume in steady state plasma (Vss) ([5]; dogs): 2.1813 L/kg; t % ([5]; dogs): 9.8 h; increase of degree of absorption, fed versus fasting (Cmax and AUC0-24 h) ([5]; fed dogs compared with fasting dogs): approximately 2 times; pIC50 (human Smo (hSmo)): 8.07; inhibitory effect on other CYP isozymes (CYP isozymes): no inhibitory effect; time-dependent inhibition of CYP isoenzyme (CYP isozymes; human liver microsomes): not a time-dependent inhibitor; pIC50 (Gli1 mRNA): 8.72; binding to plasma proteins [6]: 87.7%; CYP2C8 inhibition (CYP2C8): weak inhibitor; CL [7]: 2.688 mL/min/kg; distribution volume in steady state plasma (Vss) [7]: 0.6816 L/kg; t % [7]: 1.7 h; clinical response ([8]; a patient with basal cell carcinoma): partial response; mean Tmax ([8]; after a single dose): 1.8 to 4.2 h; mean Tmax ([8]; after several doses): 2.4 to 4.0 h; pharmacokinetics based on plasma concentration-time AUC ([8]; dose range 50-1600 mg): linear over the entire dose range; dose-limiting toxicities ([8]; patients): muscle spasms and fatigue; inhibition of Gli1 gene expression in skin biopsies ([8]; patients): observed with all doses analyzed; median elimination half-life ([8]; patients): 12.9 to 18.3 h; tolerability ([8]; patients): well-tolerated; TGI (%) day 21 (1 − [Tf − Ti]/[Cf − Ci]) (JH051): 15%; binding to plasma proteins [9]: 96.2%; substrate for P-glycoprotein (P-gp) flow pump (P-glycoprotein (P-gp)): bad substrate; TGI (%) day 21 (1 − [Tf − Ti]/[Cf − Ci]) (Panc163): 61%; inhibition of human PDE4 phosphodiesterase [10]: 67%; Papp, A-to-B (Caco-2 cells): 19.6 '10-6 cm/sec; pIC50 [11]: 8.36; tumor progression / paracrine Hh ligand signaling [12]: inhibit tumor progression; inhibition of human dopamine transporter [13]: 75%; Gli1 mRNA expression in tumor-associated stromal tissue ([14]; Ohashi et al.): suppressed; expression of Gli1 mRNA in vivo ([14]; medulloblastoma allograft, mouse tumor): dose-dependent inhibition; tumor activity ([14]; medulloblastoma allograft, p<0.025): significant dose-dependent tumor activity; tumor growth treatment/control ratio ([14]; mouse medulloblastoma allograft model): 3%; dose-limiting toxicities [15]: weight loss; decrease in food consumption; injuries of the gastrointestinal tract; toxicological changes [15, 16]: decreased body weight; atrophy of the growth plate in the ribs and hair follicles; erosion or ulceration of the gastric mucosa; anemia; necrosis and hypocellularity of the bone marrow as well as inflammation and hemorrhage in the lung

Q: For `CC1=C2C[C@H]3[C@@H](CC[C@@H]4C[C@H](NS(C)(=O)=O)CC[C@@]43C)[C@@H]2CC[C@@]2(C1)O[C@@H]1C[C@H](C)CN[C@H]1[C@H]2C` [IPI-926], which “stroma, tumor vascularization and effect of Gem chemotherapy” value (Smo) is on record?
A: Its value is “selective stromal elimination, better tumor vascularization, and greater effect of Gem chemotherapy”.
